Patent US4112082A (priority 1975, dated 1978)

Columns and labels:
[1] = test system: spider mites (Tetrantychus strain), Normal Strain; settings: in vivo
[2] = test system: spider mites (Tetrantychus strain), Resistant Strain; settings: in vivo
mice = settings: mouse, in vivo, sc; cited from earlier work

CCOC(=O)CC(SP(=S)(OC)OC)C(=O)OCC (stereo not drawn) [malathion]
LD50, Normal Strain [1]: 50 μg/8 cm^2 | LD50, Resistant Strain [2]: 40 μg/8 cm^2

CN(C)C(=O)Oc1cccc([N+](C)(C)C)c1 [neostigmine]
LD50 to mice (mice): 0.42 mg/kg
